In general, IC50 refers to the concentration needed to halve the response being measured. Higher therefore signals a need for much substance.

For the assay, the target named is one or more of HDAC4, HDAC5, HDAC6, HDAC7, HDAC8, HDAC9 and HDAC11. Kind of assay: Inhibition of histone deacetylase enzymatic activity (fluorogenic Boc-Lys(Ac)-AMC / Boc-Lys(trifluoroacetyl)-AMC substrate). It is filed as biochemical. As to conditions: against one or more of HDAC4, HDAC5, HDAC6, HDAC7, HDAC8, HDAC9 and HDAC11. The procedure:
Inhibition of HDAC-1,2,3,6 and 8
The following protocol is used to assay the compounds of the invention. In the assay, the buffer used is 25 mM HEPES, pH 8.0, 137 mM NaCl, 2.7 mM KCl, 1 mM MgCl2 and the substrate is Boc-Lys(Ac)-AMC in a 50 mM stock solution in DMSO. The enzyme stock solution is 4.08 μg/mL in buffer.
The compounds are pre-incubated (2 μl, in DMSO diluted to […] in buffer for transfer to assay plate) with enzyme (20 μL of 4.08 μg/mL) for 10 minutes at room temperature (35 μL pre-incubation volume). The mixture is pre-incubated for 5 minutes at room temperature. The reaction is started by bringing the temperature to 37° C. and adding 15 μL substrate. Total reaction volume is 50 μL. The reaction is stopped after 20 minutes by addition of 50 μL developer, prepared as directed by Biomol (FLUOR DE LYS™ developer, Cat. # KI-105). A plate is incubated in the dark for 10 minutes at room temperature before reading (λEx=360 nm, λEm=470 nm, Cutoff filter at 435 nm).
Inhibition of Class II HDAC and HDAC-11
A 30 mM stock of Boc-Lys(trifluoroacetyl)-AMC substrate is prepared in DMSO. 2 μL test compound in DMSO is diluted to 50 μL in buffer (25 mM HEPES, pH 8.0, 137 mM NaCl, 2.7 mM KCl, 1 mM MgCl2, 0.1% BSA) and pre-incubated with HDAC enzyme (30 μL of a final enzyme concentration of 0.1-0.2 nM) for 10 minutes at room temperature. Reaction is started by adding 18 μL Boc-Lys(trifluoroacetyl)-AMC substrate and incubating at 37° C. for 20-30 minutes. The reaction is stopped by adding 50 μL trypsin (1 mg/mL) and a known HDAC inhibitor. The plate is then incubated in the dark for 20 minutes at room temperature and read with Ex=360 nm, Em=470 nm, cutoff filter at 435 nm.
For the compound `CN(Cc1ccccc1)Cc1cc(-c2ccccc2)c(C(=O)NO)s1` [Compound 182, 5-((benzyl(methyl)amino)methyl)-N-hydroxy-3-phenylthiophene-2-carboxamide], the IC50 was below 0.25 µM.

Take `CCOC(=O)N1CCC(c2nc(-c3ccccc3)c(C(=O)NO)s2)CC1` [Compound 147, ethyl 4-(5-(hydroxycarbamoyl)-4-phenylthiazol-2-yl)piperidine-1-carboxylate]: the IC50 was below 0.25 µM.

In turn, `Cc1cscc1-c1ccc(C(=O)NO)c(-c2cscc2C)c1` [Compound 51, N-hydroxy-2,4-bis(4-methylthiophen-3-yl)benzamide] displayed an IC50 below 0.25 µM.

Consider `CN(C)c1ccc(-c2ccc(C(=O)NO)c(-c3ccccc3)c2)cc1` [Compound 116, 5-(4-dimethylamino-phenyl)-N-hydroxybiphenyl-2-carboxamide], for which the IC50 is below 0.25 µM.

Regarding `CN(Cc1ccccc1)C(=O)OCc1cc(-c2ccccc2)c(C(=O)NO)s1` [Compound 181, (5-(hydroxycarbamoyl)-4-phenylthiophen-2-yl)methyl benzyl(methyl)carbamate], the IC50 was below 0.25 µM.

Turning to `O=C(NO)c1cnc(-c2ccccc2)nc1-c1ccccc1` [Compound 141, N-hydroxy-2,4-diphenylpyrimidine-5-carboxamide], the IC50 was 0.25 to 0.5 µM.

Take `COc1ccc(-c2nc(-c3ccc(F)cc3)c(C(=O)NO)s2)cc1` [Compound 80, 4-(4-fluorophenyl)-N-hydroxy-2-(4-methoxyphenyl)thiazole-5-carboxamide]: the IC50 is below 0.25 µM.

The compound `O=C(NO)c1sc2ccc(NS(=O)(=O)c3cccs3)cc2c1-c1ccccc1` [Compound 160] had an IC50 of 0.25 to 0.5 µM.

`O=C(NO)c1sc(-c2ccc3c(c2)OCO3)nc1-c1ccccc1` [compound 81] showed an IC50 below 0.25 µM.

On to `COc1cccc(-c2cc(F)ccc2C(=O)NO)c1` [Compound 98, 5-fluoro-N-hydroxy-3′-methoxybiphenyl-2-carboxamidc], for which the IC50 lay in the range of 0.5 to 0.75 µM.

On to `O=C(Nc1ccccc1Oc1ccccc1)c1ccc(C(=O)NO)c(-c2ccccc2)c1` [compound 105], for which the IC50 was in the range of 0.5 to 0.75 µM.

The compound `COc1cccc(-c2ccc(C(=O)NO)c(-c3cccc(OC)c3)c2)c1` [Compound 50] gave an IC50 of 0.75 to 5 µM.

`O=C(NO)c1sc2ccc(NS(=O)(=O)Cc3ccccc3)cc2c1-c1ccccc1` [Compound 157, N-hydroxy-3-phenyl-5-(phenylmethyl-sulfonamido) benzo[b]thiophene-2-carboxamide] had an IC50 below 0.25 µM.

In turn, `O=C(NO)c1sc(C2CCN(C(=O)N3CCCC3)CC2)nc1-c1ccccc1` [Compound 145, N-hydroxy-4-phenyl-2-(1-(pyrrolidine-1-carbonyl)piperidin-4-yl)thiazole-5-carboxamide] registered an IC50 below 0.25 µM.

In the case of `O=C(NO)c1sc(-c2ccccc2)nc1-c1ccccc1` [Compound 74, N-hydroxy-2,4-diphenylthiazole-5-carboxamide], the half-inhibitory concentration (IC50) is below 0.25 µM.

`O=C(NO)c1ccc(C2=Nc3ccccc3Oc3ccccc32)cc1-c1ccccc1` [Compound 104, (Z)-5-(dibenzo[b,f][1,4]oxazepin-11-yl)-N-hydroxybiphenyl-2-carboxamide] had an IC50 below 0.25 µM.

For `O=C(NO)c1sc(COc2ccccc2)cc1-c1ccccc1` [Compound 125, N-hydroxy-5-(phenoxymethyl)-3-phenylthiophene-2-carboxamide], the IC50 was below 0.25 µM.

`O=C(NO)c1ccc(CN2C(=O)c3ccccc3Oc3ccccc32)cc1-c1ccccc1` [Compound 162, N-hydroxy-5-((11-oxodibenzo[b,f] [1,4]oxazepin-10(11H)-yl)methyl)biphenyl-2-carboxamide] returned an IC50 below 0.25 µM.

With `COc1ccc(S(=O)(=O)Nc2ccc3sc(C(=O)NO)c(-c4ccccc4)c3c2)cc1` [Compound 154, N-hydroxy-5-(4-methoxyphenyl-sulfonamido)-3-phenylbenzo[b] thiophene-2-carboxamide], the IC50 was in the range of 0.5 to 0.75 µM.

Compound `O=C(NO)c1ccc(-c2ccccc2)cc1-c1ccccc1` [Compound 52] displayed an IC50 below 0.25 µM.

In turn, `O=C(NO)c1cn(-c2ccccc2)nc1-c1ccc(F)cc1` [Compound 108, 3-(4-fluorophenyl)-N-hydroxy-1-phenyl-1H-pyrazole-4-carboxamide] had an IC50 of 0.75 to 5 µM.

In the case of `O=C(NO)c1sc2ccc(NS(=O)(=O)c3ccccc3)cc2c1-c1ccccc1` [Compound 126, N-hydroxy-3-phenyl-5-(phenylsulfonamido) benzo[b] thiophene-2-carboxamide], the IC50 lay within 0.5 to 0.75 µM.

On to `O=C(NO)c1sc(-c2csc3ccccc23)nc1-c1ccccc1` [Compound 110, 2-(benzo[b]thiophen-3-yl)-N-hydroxy-4-phenylthiazole-5-carboxamide], for which the IC50 is below 0.25 µM.

Consider `O=C(NO)c1sc(-c2cccnc2)nc1-c1ccccc1` [Compound 120, N-hydroxy-4-phenyl-2-(pyridin-3-yl)thiazole-5-carboxamide], for which the IC50 is below 0.25 µM.

In turn, `O=C(NO)c1sc(-c2ccncc2)nc1-c1ccccc1` [Compound 122, N-hydroxy-4-phenyl-2-(pyridin-4-yl)thiazole-5-carboxamide] yielded an IC50 below 0.25 µM.

On to `CC(=O)Nc1ccc(S(=O)(=O)N2CCC(c3nc(-c4ccccc4)c(C(=O)NO)s3)CC2)cc1` [Compound 158, 2-(1-(4-acetamidophenyl-sulfonyl)piperidin-4-yl)-N-hydroxy-4-phenylthiazole-5-carboxamide], for which the 50% inhibitory concentration (IC50) was below 0.25 µM.

As for `O=C(NO)c1cn(-c2ccccc2)nc1-c1ccccc1` [Compound 32, N-hydroxy-1,3-diphenyl-1H-pyrazole-4-carboxamidc], the IC50 fell in the range of 0.5 to 0.75 µM.

Take `O=C(Nc1ccc2sc(C(=O)NO)c(-c3ccccc3)c2c1)OCc1ccccc1` [Compound 131, benzyl 2-(hydroxycarbamoyl)-3-phenylbenzo[b] thiophen-5-ylcarbamate]: the IC50 fell in the range of 0.5 to 0.75 µM.

The compound `O=C(NO)c1sc(C2CCN(Cc3ccccc3)CC2)nc1-c1ccccc1` [Compound 132, 2-(1-benzylpiperidin-4-yl)-N-hydroxy-4-phenylthiazole-5-carboxamide] gave an IC50 below 0.25 µM.

In turn, `O=C(NO)c1sc(C(c2ccccc2)c2ccccc2)nc1-c1ccccc1` [Compound 150, 2-benzhydryl-N-hydroxy-4-phenylthiazole-5-carboxamide] registered an IC50 below 0.25 µM.

Compound `O=C(NO)c1ccccc1-n1cccc1` [Compound 21, N-hydroxy-2-(lH-pyrrol-1-yl)benzamide] yielded an IC50 of 0.75 to 5 µM.

`O=C(NO)c1sc(C2CCN(S(=O)(=O)c3ccccc3)CC2)nc1-c1ccccc1` [Compound 151, N-hydroxy-4-phenyl-2-(1-(phenylsulfonyl)piperidin-4-yl)thiazole-5-carboxamide] showed an IC50 below 0.25 µM.

`O=C(NO)c1sc(N2CCCCC2)nc1-c1ccccc1` [Compound 117, N-hydroxy-4-phenyl-2-(piperidin-1-yl)thiazole-5-carboxamide] yielded an IC50 below 0.25 µM.

In turn, `O=C(NO)c1ccccc1-c1cccc(F)c1` [Compound 27, 3′-fluoro-N-hydroxybiphenyl-2-carboxamide] showed an IC50 of 0.75 to 5 µM.

Turning to `COc1cccc(-c2ccccc2C(=O)NO)c1` [Compound 19, N-hydroxy-3′-melhoxybipheny 1-2-carboxamide], the IC50 fell in the range of 0.75 to 5 µM.

In the case of `O=C(NO)c1sc(-c2ccccc2)cc1-c1ccccc1` [Compound 89, N-hydroxy-3,5-diphenylthiophene-2-carboxamide], the IC50 was 0.25 to 0.5 µM.

Values taken from US8673911B2, “Inhibitors of histone deacetylase” (MethylGene Inc., priority 2007, dated 2014).
